Results as given in ChEMBL document CHEMBL1795293, “Novel pentamidine derivatives: synthesis, anti-tumor properties and polynucleotide-binding activities” (Eur J Med Chem, 2011).
Active and inactive are the calls of the source. The calls are words filed in the database; no cut-off is given here.

Tests used:
[1] = tested on: HeLa; experiment: Cytotoxicity against human HeLa cells after 72 hrs by MTT assay; assay type: functional, cell-based
[2] = tested on: MCF7; experiment: Cytotoxicity against human MCF7 cells after 72 hrs by MTT assay; assay type: functional, cell-based; conditions: MCF7, 72 h
[3] = tested on: MIA PaCa-2; experiment: Cytotoxicity against human MIAPaCa2 cells after 72 hrs by MTT assay; assay type: functional, cell-based; conditions: MIA PaCa-2, 72 h
[4] = tested on: Nucleic Acid; experiment: Stabilization of double helix calf thymus DNA by spectroscopy; assay type: nucleic-acid assay; conditions: Bos taurus
[5] = tested on: SW-620; experiment: Cytotoxicity against human SW620 cells after 72 hrs by MTT assay; assay type: functional, cell-based; conditions: SW-620, 72 h
[6] = tested on: HEp-2; experiment: Cytotoxicity against human Hep2 cells after 72 hrs by MTT assay; assay type: functional, cell-based; conditions: HEp-2, 72 h
[7] = tested on: Nucleic Acid; experiment: Binding affinity to Poly A-Poly U RNA assessed as change in melting temperature at 0.3 compound to polynucleotide ratio by UV-VIS spectral study; assay type: nucleic-acid assay
[8] = tested on: HCT-116; experiment: Cytotoxicity against human HCT116 cells after 72 hrs by MTT assay; assay type: functional, cell-based; conditions: HCT-116, 72 h
[9] = tested on: Nucleic Acid; experiment: Binding affinity to Poly A-Poly U RNA measured at 300 to 330 nm wavelength at < 0.3 compound to polynucleotide ratio by circular dichroism spectroscopy; assay type: nucleic-acid assay
[10] = tested on: Nucleic Acid; experiment: Binding affinity to calf thymus DNA assessed as ratio of ethidium bromide /compound at which 50% of ethidium bromide fluorescence is quenched by displacement assay; assay type: nucleic-acid assay, Bos taurus
[11] = tested on: Nucleic Acid; experiment: Binding affinity to calf thymus DNA assessed as change in melting temperature at 0.3 ratio compound/polynucleotide by UV-VIS spectral study; assay type: nucleic-acid assay; conditions: Bos taurus
[12] = target: Nucleic Acid; experiment: Binding affinity to Poly G-Poly C RNA assessed as ratio of ethidium bromide /compound at which 50% of ethidium bromide fluorescence is quenched by displacement assay; assay type: nucleic-acid assay
[13] = tested on: MOLT-4; experiment: Cytotoxicity against human MOLT4 cells after 72 hrs by MTT assay; assay type: functional, cell-based; conditions: MOLT-4, 72 h
[14] = tested on: Nucleic Acid; experiment: Binding affinity to Poly A-Poly U RNA assessed as change in melting temperature at 0.5 compound to polynucleotide ratio by UV-VIS spectral study; assay type: nucleic-acid assay
[15] = target: Nucleic Acid; experiment: Binding affinity to Poly dA-Poly dT DNA assessed as ratio of ethidium bromide /compound at which 50% of ethidium bromide fluorescence is quenched by displacement assay; assay type: nucleic-acid assay
[16] = target: Nucleic Acid; experiment: Binding affinity to Poly A-Poly U RNA assessed as ratio of ethidium bromide /compound at which 50% of ethidium bromide fluorescence is quenched by displacement assay; assay type: nucleic-acid assay
[17] = tested on: Nucleic Acid; experiment: Binding affinity to Poly dA-Poly dT DNA assessed as change in melting temperature at 0.5 compound to polynucleotide ratio by UV-VIS spectral study; assay type: nucleic-acid assay
[18] = tested on: Nucleic Acid; experiment: Binding affinity to Poly A-Poly U RNA measured at 299 nm wavelength at < 0.3 compound to polynucleotide ratio by circular dichroism spectroscopy; assay type: nucleic-acid assay
[19] = tested on: NCI-H460; experiment: Cytotoxicity against human H460 cells after 72 hrs by MTT assay; assay type: functional, cell-based; conditions: NCI-H460, 72 h
[20] = tested on: Nucleic Acid; experiment: Binding affinity to calf thymus DNA assessed as change in melting temperature at 0.5 compound to polynucleotide ratio by UV-VIS spectral study; assay type: nucleic-acid assay; conditions: Bos taurus
[21] = tested on: Nucleic Acid; experiment: Binding affinity to Poly dA-Poly dT DNA assessed as change in melting temperature at 0.3 compound to polynucleotide ratio by UV-VIS spectral study; assay type: nucleic-acid assay
[22] = tested on: Nucleic Acid; experiment: Binding affinity to Poly G-Poly C RNA at 0.1 compound to polynucleotide ratio by circular dichroism spectroscopy; assay type: nucleic-acid assay
[23] = tested on: Nucleic Acid; experiment: Binding affinity to double strand Poly dA-Poly dT DNA measured at 300 to 330 nm wavelength at 0.1 compound to polynucleotide ratio by circular dichroism spectroscopy; assay type: nucleic-acid assay
[24] = tested on: Nucleic Acid; experiment: Binding affinity to Poly A-Poly U RNA measured at 326 nm wavelength at 0.7 compound to polynucleotide ratio by circular dichroism spectroscopy; assay type: nucleic-acid assay
[25] = tested on: Nucleic Acid; experiment: Binding affinity to Poly G-Poly C RNA at 0.2-0.3 compound to polynucleotide ratio by circular dichroism spectroscopy; assay type: nucleic-acid assay
[26] = tested on: Nucleic Acid; experiment: Binding affinity to calf thymus DNA by UV-VIS spectral study; assay type: nucleic-acid assay; conditions: Bos taurus
[27] = tested on: Nucleic Acid; experiment: Binding affinity to double strand Poly dA-Poly dT DNA measured at 300 to 330 nm wavelength at 0.3 compound to polynucleotide ratio by circular dichroism spectroscopy; assay type: nucleic-acid assay
[28] = tested on: Nucleic Acid; experiment: Binding affinity to double strand Poly dA-Poly dT DNA measured at 300 to 330 nm wavelength at > 0.5 compound to polynucleotide ratio by circular dichroism spectroscopy; assay type: nucleic-acid assay
[29] = tested on: Nucleic Acid; experiment: Binding affinity to Poly G-Poly C RNA at < 0.3 compound to polynucleotide ratio by circular dichroism spectroscopy; assay type: nucleic-acid assay
[30] = tested on: Nucleic Acid; experiment: Binding affinity to double strand calf thymus DNA measured at 300 to 330 nm wavelength at 0.3 compound to polynucleotide ratio by circular dichroism spectroscopy; assay type: nucleic-acid assay; conditions: Bos taurus
[31] = tested on: Nucleic Acid; experiment: Binding affinity to double strand calf thymus DNA measured at 300 to 330 nm wavelength at > 0.5 compound to polynucleotide ratio by circular dichroism spectroscopy; assay type: nucleic-acid assay; conditions: Bos taurus
[32] = tested on: Nucleic Acid; experiment: Binding affinity to Poly G-Poly C RNA at 0.7 compound to polynucleotide ratio by circular dichroism spectroscopy; assay type: nucleic-acid assay
[33] = tested on: Nucleic Acid; experiment: Binding affinity to Poly G-Poly C RNA at 0.5 compound to polynucleotide ratio by circular dichroism spectroscopy; assay type: nucleic-acid assay
[34] = tested on: Nucleic Acid; experiment: Binding affinity to double strand calf thymus DNA measured at 300 to 330 nm wavelength at 0.1 compound to polynucleotide ratio by circular dichroism spectroscopy; assay type: nucleic-acid assay; conditions: Bos taurus
[35] = tested on: Nucleic Acid; experiment: Binding affinity to Poly A-Poly U RNA measured at 290 nm wavelength at 0.1 compound to polynucleotide ratio by circular dichroism spectroscopy; assay type: nucleic-acid assay
[36] = tested on: Nucleic Acid; experiment: Binding affinity to Poly A-Poly U RNA at 0.5 compound to polynucleotide ratio by circular dichroism spectroscopy; assay type: nucleic-acid assay
[37] = tested on: Nucleic Acid; experiment: Binding affinity to Poly A-Poly U RNA measured at 303 nm wavelength at < 0.3 compound to polynucleotide ratio by circular dichroism spectroscopy; assay type: nucleic-acid assay

SMILES	ΔTm [7] [°C]	Activity [9]	IC50 [10] [molar ratio]	ΔTm [11] [°C]	IC50 [12] [molar ratio]	ΔTm [14] [°C]	IC50 [15] [molar ratio]	IC50 [16] [molar ratio]	ΔTm [17] [°C]	ΔTm [20] [°C]	ΔTm [21] [°C]	IC50 [1] [µM]	IC50 [2] [µM]	IC50 [3] [µM]	IC50 [5] [µM]	IC50 [6] [µM]	IC50 [8] [µM]	IC50 [13] [µM]	IC50 [19] [µM]	other results
CC(C)NC(=N)c1ccc(NC(=O)c2ccco2)cc1												60	> 100	> 100	> 100	> 100				Activity [4]: inactive
Cl.Cl.N=C(N)c1ccc(C(=O)Nc2cccc(NC(=O)c3ccc(C(=N)N)cc3)n2)cc1	1	Active	0.19	13.5	0.07	18.7	1.7	0.5	30.9	15	29.3	19	12	13	> 100	21	67	> 100	17	Activity [18]: inactive
N#Cc1ccc(NC(=O)c2ccc(C(=O)Nc3ccc(C#N)cc3)o2)cc1												> 100	> 100	> 100	> 100	> 100				
N=C(N)c1ccc(NC(=O)c2ccco2)cc1												> 100	33	> 100	> 100	> 100				Activity [4]: inactive
Cl.Cl.N=C(N)c1ccc(NC(=O)c2ccc(C(=O)Nc3ccc(C(=N)N)cc3)o2)cc1	1.6		0.8	7.5	0.36		2.1	1			30.2	> 100	5	53	> 100	11				
N#Cc1ccc(NC(=O)c2ccco2)cc1												47	32	> 100	> 100	> 100				
Cl.Cl.N=C(N)c1ccc(NC(=O)c2cccc(C(=O)Nc3ccc(C(=N)N)cc3)n2)cc1	1	Active	0.3	6.7	0.25		1.6	0.47			20.4	18	> 100	13	> 100	47	> 100	> 100	19	Activity [37]: Active

Now from value to molecule, other results behind:

ΔTm [7] [°C]	Activity [9]	IC50 [10] [molar ratio]	ΔTm [11] [°C]	IC50 [12] [molar ratio]	ΔTm [14] [°C]	IC50 [15] [molar ratio]	IC50 [16] [molar ratio]	ΔTm [17] [°C]	ΔTm [20] [°C]	ΔTm [21] [°C]	SMILES	IC50 [1] [µM]	IC50 [2] [µM]	IC50 [3] [µM]	IC50 [5] [µM]	IC50 [6] [µM]	IC50 [8] [µM]	IC50 [13] [µM]	IC50 [19] [µM]	other results
3.7	Active	0.13	13.1	0.07	5.7	2	0.07	32.2	14.5	30.5	CC(C)NC(=N)c1ccc(C(=O)Nc2cccc(NC(=O)c3ccc(C(=N)NC(C)C)cc3)n2)cc1.Cl.Cl	56	24	> 100	> 100	38	> 100	> 100	> 100	Activity [18]: Active
3.1	Active	0.15	8.5	0.1	3.7	1.37	0.17	25.5	10.3	24.1	CC(C)NC(=N)c1ccc(NC(=O)c2cccc(C(=O)Nc3ccc(C(=N)NC(C)C)cc3)n2)cc1.Cl.Cl	53	32	> 100	> 100	30	> 100	> 100	> 100	
4.5	Active	0.36	5.6	0.2	20.1	2.23	0.03	31.7	6.6	29.5	CC(C)NC(=N)c1ccc(NC(=O)c2ccc(C(=O)Nc3ccc(C(=N)NC(C)C)cc3)o2)cc1.Cl.Cl	50	4	79	4	5				Activity [22]: Active; Activity [23]: Active; Activity [24]: Active; Activity [25]: Active; Ks [26]: 6.3 ×10⁴ /M; Activity [27]: inactive; Activity [28]: Active; Activity [29]: Active; Activity [30]: inactive; Activity [31]: Active; Activity [32]: Active; Activity [33]: Active; Activity [34]: Active; Activity [35]: Active; Activity [36]: Active
